# Tests used:
# Experiment in all cases: HPLC-MS of products after alkaline phosphatase
# Format in all cases: biochemical
# Settings in all cases: 100 mM UDP-galactose, 10 mM MgSO4, pH 8.0 protein buffer, 30 °C, 16 h
# [1] = biological target: T1, PhTPS4 (Pyropia haitanensis, UniProt U3GP00)
# T1 construct: E. coli BL21, pET-28a or pET-28a-sumo, His tag, sumo-His tag cut before assay; full-length ORF 1008 aa with N-terminal CBM20
# [2] = biological target: T2, PhTPS1 (Pyropia haitanensis, UniProt T1UQ24)
# T2 construct: E. coli BL21, pET-28a or pET-28a-sumo, His tag, sumo-His tag cut before assay; full-length ORF 1154 aa
# T2 sequence (T1UQ24 entry or part of it): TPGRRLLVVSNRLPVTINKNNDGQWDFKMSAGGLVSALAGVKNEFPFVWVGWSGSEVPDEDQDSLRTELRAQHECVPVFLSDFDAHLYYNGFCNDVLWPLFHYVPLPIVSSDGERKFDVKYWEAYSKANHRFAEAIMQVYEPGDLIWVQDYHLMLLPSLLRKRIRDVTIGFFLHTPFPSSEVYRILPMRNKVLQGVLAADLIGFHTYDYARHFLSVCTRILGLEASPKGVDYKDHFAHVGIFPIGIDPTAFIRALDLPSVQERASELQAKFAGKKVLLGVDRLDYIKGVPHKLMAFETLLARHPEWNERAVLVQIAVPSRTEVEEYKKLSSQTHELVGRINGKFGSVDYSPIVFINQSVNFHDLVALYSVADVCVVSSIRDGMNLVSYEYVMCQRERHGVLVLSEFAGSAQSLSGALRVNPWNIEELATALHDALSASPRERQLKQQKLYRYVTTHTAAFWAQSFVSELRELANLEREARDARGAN
# [3] = biological target: T3, PhTPS3 (Pyropia haitanensis, UniProt A0A0A7PA46)
# T3 construct: E. coli BL21, pET-28a or pET-28a-sumo, His tag, sumo-His tag cut before assay; full-length ORF 1108 aa
# T3 sequence (A0A0A7PA46 entry or part of it): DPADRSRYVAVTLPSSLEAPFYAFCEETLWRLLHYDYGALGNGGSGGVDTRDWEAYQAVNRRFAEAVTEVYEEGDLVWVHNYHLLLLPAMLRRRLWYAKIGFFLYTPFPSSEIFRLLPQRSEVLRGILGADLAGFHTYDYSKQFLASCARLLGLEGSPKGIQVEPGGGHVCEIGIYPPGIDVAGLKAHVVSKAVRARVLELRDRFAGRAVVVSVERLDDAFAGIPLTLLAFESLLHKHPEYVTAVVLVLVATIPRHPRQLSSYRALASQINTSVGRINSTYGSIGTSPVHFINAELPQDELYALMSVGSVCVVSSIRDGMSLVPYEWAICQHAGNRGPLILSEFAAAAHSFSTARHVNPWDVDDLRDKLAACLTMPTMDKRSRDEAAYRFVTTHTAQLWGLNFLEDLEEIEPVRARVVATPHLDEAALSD
# T1 sequence (U3GP00 entry or part of it): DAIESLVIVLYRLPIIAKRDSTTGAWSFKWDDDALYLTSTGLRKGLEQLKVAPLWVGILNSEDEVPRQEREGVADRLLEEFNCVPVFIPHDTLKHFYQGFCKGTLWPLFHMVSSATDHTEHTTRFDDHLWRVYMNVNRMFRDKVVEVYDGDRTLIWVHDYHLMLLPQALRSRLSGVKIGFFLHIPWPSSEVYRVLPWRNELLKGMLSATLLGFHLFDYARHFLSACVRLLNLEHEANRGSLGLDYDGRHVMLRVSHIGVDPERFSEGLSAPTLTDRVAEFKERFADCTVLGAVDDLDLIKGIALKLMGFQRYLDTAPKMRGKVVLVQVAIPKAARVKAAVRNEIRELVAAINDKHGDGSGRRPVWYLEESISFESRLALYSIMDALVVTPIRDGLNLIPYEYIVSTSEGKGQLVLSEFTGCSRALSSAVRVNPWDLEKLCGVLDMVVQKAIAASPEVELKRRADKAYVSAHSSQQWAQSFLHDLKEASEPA
compound,measurement,setting,value
O=P(O)(O)OC[C@H](O)CO [G3P],HPLC-MS of products after alkaline phosphatase,[1],UDP-Gal and G3P were allowed to react with them
same,HPLC-MS of products after alkaline phosphatase,[2],UDP-Gal and G3P were allowed to react with them
same,HPLC-MS of products after alkaline phosphatase,[3],UDP-Gal and G3P were allowed to react with them

# — article PMC6642608, “Putative trehalose biosynthesis proteins function as differential floridoside-6-phosphate synthases to participate in the abiotic stress response in the red alga Pyropia haitanensis” (BMC Plant Biology, 2019)
